Data as given in article PMC7617869, “Molecular glues that inhibit deubiquitylase activity and inflammatory signaling” (Nature Structural & Molecular Biology, 2025).
pIC50: −log10 of the molar value. Several values for one entry are separate records, joined by “and”; a condition that tells them apart may be missing. Identical values can stand only once.

Columns and labels:
Type in all cases: biochemical
[1] = biological target: BRISC BRCC36 L169R (Homo sapiens, UniProt P46736+Q15018+Q9NXR7, L169R); experiment: BRISC mutant IQF assay: BRCC36 L169R
Method: (§1) IQF assays were performed in DUB reaction buffer containing 50 mM HEPES–NaOH pH 7.0, 100 mM NaCl, 0.1 mg ml^−1 BSA, 1 mM DTT and 0.03% v/v Brij-35. […] The final concentration of BRISC WT, all BRISC mutants, HsBRISCΔLoop, MmBRISC and DrBRISCΔNΔC was 1 nM. Other enzymes were tested at the following concentrations: 5 nM ARISC (FL), 10 nM CfBRISCΔNΔC, 250 nM AMSH* (ref. [43]), 500 nM USP2 and 1 μM trypsin (Sigma, 9002-07-7). For Michaelis–Menten experiments, 1 nM BRISC with 0–1 μM IQF K63-linked diubiquitin substrate was used. Michaelis–Menten analyses and Lineweaver–Burk plots were calculated using GraphPad Prism (version 9.0).
(§2) To assess enzymatic activity, BRISC complexes were diluted to concentrations between 1 nM and 50 nM. […] Then, 20-μl enzyme reactions were carried out in 384-well black flat-bottom low-flange plates (Corning, 35373). DUB activity was measured using IQF K63-linked diubiquitin (LifeSensors, DU6303) at 50 nM. Cleaved diubiquitin was monitored by measuring fluorescence intensity (excitation, 544 nm; emission, 575 nm; dichroic mirror, 560 nm). Fluorescence intensity was measured every minute for 30 min at 30 °C. Fluorescence intensity units were plotted against time to generate a linear reaction progress curve, where the initial velocity (V0) corresponds to the gradient of the curve (typically achieved within 15 min). IC50 values were calculated using the GraphPad Prism (version 9.0) built-in dose–response equation for inhibitor concentration versus response (variable slope).

[2] = biological target: BRISC Abraxas2 T135K (Homo sapiens, UniProt P46736+Q15018+Q9NXR7, T135K); experiment: BRISC mutant IQF assay: Abraxas2 T135K
Method: as §1, §2

[3] = biological target: BRISC BRCC45 C245A (Homo sapiens, UniProt P46736+Q15018+Q9NXR7, C245A); experiment: BRISC mutant IQF assay: BRCC45 C245A
Method: as §1, §2

[4] = biological target: BRISC BRCC45 D248R (Homo sapiens, UniProt P46736+Q15018+Q9NXR7, D248R); experiment: BRISC mutant IQF assay: BRCC45 D248R
Method: as §1, §2

[5] = biological target: BRISC BRCC45 R137A+F140A (Homo sapiens, UniProt P46736+Q15018+Q9NXR7, F140A/R137A); experiment: BRISC mutant IQF assay: BRCC45 R137A+F140A
Method: as §1
To assess enzymatic activity, BRISC complexes were diluted to concentrations between 1 nM and 50 nM. […] DUB activity was measured using IQF K63-linked diubiquitin (LifeSensors, DU6303) at 50 nM. Cleaved diubiquitin was monitored by measuring fluorescence intensity (excitation, 544 nm; emission, 575 nm; dichroic mirror, 560 nm). Fluorescence intensity was measured every minute for 30 min at 30 °C. Fluorescence intensity units were plotted against time to generate a linear reaction progress curve, where the initial velocity (V0) corresponds to the gradient of the curve (typically achieved within 15 min). IC50 values were calculated using the GraphPad Prism (version 9.0) built-in dose–response equation for inhibitor concentration versus response (variable slope).

[6] = biological target: HsBRISCΔLoop (Δ184–208) (Homo sapiens, UniProt P46736+Q15018+Q9NXR7); experiment: HsBRISCΔLoop IQF DUB activity assay
Method: as §1, §2

[7] = biological target: T1, BRISC (Homo sapiens, UniProt P46736+Q15018+Q9NXR7); experiment: Compound library screening and hit validation (IQF diubiquitin, 1 nM BRISC); conditions: for BRISC, normalised activity (Ext. 1a): two replicate columns
T1 construct: made in house; host or cells: Spodoptera frugiperda (Sf9) insect cells, MultiBac
Method: Assays were performed in 384-well black flat-bottom low-flange plates (Corning, 35373) in buffer containing 50 mM HEPES–NaOH pH 7.0, 100 mM NaCl, 1 mg ml^−1 BSA, 1 mM DTT and 0.03% v/v Brij-35. Then, 10 μl of twofold concentrated enzyme stock was dispensed, followed by transfer of 200 nl of compounds (1 mM stock) using a 384-pin tool and a 15-min incubation at room temperature. Then, 10 μl of twofold concentrated substrate stock was added and the reaction was monitored by measuring fluorescence intensity (excitation, 540 nm; emission, 580 nm) after 20-min incubation at room temperature and ~50% of substrate was consumed. Orthogonal assays for verification of H20 and P12 hit compounds using USP2 (100 nM) and trypsin (125 nM) were performed in identical conditions.

[8] = FX-171-C 0.0035 μM, read-out: Normalised V0
[9] = FX-171-C 0.035 μM, read-out: Normalised V0
[10] = FX-171-C 0.35 μM, read-out: Normalised V0
[11] = FX-171-C 3.1 μM, read-out: Normalised V0
[12] = FX-171-C 25 μM, read-out: Normalised V0

O=C(NC1C2CNCC21)c1nn(C(=O)c2c(Cl)cccc2Cl)cc1NC(=O)c1c(Cl)cccc1Cl (centres unmarked) [FX-171-C]
pIC50 [1]: 4.12
reduction of inhibition over wild-type complex [1]: > 100 fold
remaining activity at 0.0035 µM [1, 8]: 98.8%
remaining activity at 0.035 µM [1, 9]: 96.8%
remaining activity at 0.35 µM [1, 10]: 93.7%
remaining activity at 3.1 µM [1, 11]: 89.5%
remaining activity at 25 µM [1, 12]: 88%
pIC50 [2]: 5.82
inhibitor sensitivity vs BRISC WT [2]: moderate to little effect on inhibitor sensitivity
remaining activity at 0.35 µM [2, 10]: 73.4%
remaining activity at 3.1 µM [2, 11]: 20.9%
pIC50 [3]: 4.51
inhibitor sensitivity vs BRISC WT [3]: reduced sensitivity to inhibition
remaining activity at 0.0035 µM [3, 8]: 97.7%
remaining activity at 0.035 µM [3, 9]: 74.6%
remaining activity at 0.35 µM [3, 10]: 94.7%
remaining activity at 6.25 µM ([3]; FX-171-C 6.25 μM, read-out: Normalised V0): 66.4%
remaining activity at 12.5 µM ([3]; FX-171-C 12.5 μM, read-out: Normalised V0): 43.3%
remaining activity at 25 µM [3, 12]: 46.6%
pIC50 [4]: < 4.00
inhibitor sensitivity vs BRISC WT [4]: reduced sensitivity to inhibition
remaining activity at 0.0035 µM [4, 8]: 91.7%
remaining activity at 0.035 µM [4, 9]: 97.4%
remaining activity at 0.35 µM [4, 10]: 91.7%
pIC50 [5]: 4.28
remaining activity at 0.035 µM [5, 9]: 79.9%
remaining activity at 0.013 µM ([6]; HsBRISCΔLoop, FX-171-C 0.013 μM, read-out: Normalised V0): 87.6%
remaining activity at 0.02 µM ([6]; HsBRISCΔLoop, FX-171-C 0.02 μM, read-out: Normalised V0): 103%
remaining activity at 0.0399999 µM ([6]; HsBRISCΔLoop, FX-171-C 0.0399999 μM, read-out: Normalised V0): 90.4%
remaining activity at 0.0599997 µM ([6]; HsBRISCΔLoop, FX-171-C 0.0599997 μM, read-out: Normalised V0): 102%
remaining activity at 0.0799994 µM ([6]; HsBRISCΔLoop, FX-171-C 0.0799994 μM, read-out: Normalised V0): 93.6%
remaining activity at 0.119998 µM ([6]; HsBRISCΔLoop, FX-171-C 0.119998 μM, read-out: Normalised V0): 102%
remaining activity at 0.199996 µM ([6]; HsBRISCΔLoop, FX-171-C 0.199996 μM, read-out: Normalised V0): 84.1%
remaining activity at 0.499975 µM ([6]; HsBRISCΔLoop, FX-171-C 0.499975 μM, read-out: Normalised V0): 99%
remaining activity at 0.799937 µM ([6]; HsBRISCΔLoop, FX-171-C 0.799937 μM, read-out: Normalised V0): 98.4%
remaining activity at 1.25984 µM ([6]; HsBRISCΔLoop, FX-171-C 1.25984 μM, read-out: Normalised V0): 86.2%
remaining activity at 1.9996 µM ([6]; HsBRISCΔLoop, FX-171-C 1.9996 μM, read-out: Normalised V0): 93.3%
remaining activity at 3.159 µM ([6]; HsBRISCΔLoop, FX-171-C 3.159 μM, read-out: Normalised V0): 82%
remaining activity at 5.19739 µM ([6]; HsBRISCΔLoop, FX-171-C 5.19739 μM, read-out: Normalised V0): 89%
remaining activity at 7.99364 µM ([6]; HsBRISCΔLoop, FX-171-C 7.99364 μM, read-out: Normalised V0): 69.7%
remaining activity at 12.7839 µM ([6]; HsBRISCΔLoop, FX-171-C 12.7839 μM, read-out: Normalised V0): 65.1%
remaining activity at 19.96 µM ([6]; HsBRISCΔLoop, FX-171-C 19.96 μM, read-out: Normalised V0): 50.7%
remaining activity at 31.4999 µM ([6]; HsBRISCΔLoop, FX-171-C 31.4999 μM, read-out: Normalised V0): 45.4%
remaining activity at 50.147 µM ([6]; HsBRISCΔLoop, FX-171-C 50.147 μM, read-out: Normalised V0): 24.3%
remaining activity at 79.7601 µM ([6]; HsBRISCΔLoop, FX-171-C 79.7601 μM, read-out: Normalised V0): 18.2%
change of inhibitor sensitivity on deletion of BRCC36 loop (184–208) ([6]; vs human BRISC): reduced inhibitor sensitivity approximately tenfold

O=C(NC1CCNCC1)c1nn(C(=O)c2c(Cl)cccc2Cl)cc1NC(=O)c1c(Cl)cccc1Cl [JMS-175-2]
inhibition of BRISC, hit validation dose response ([7]; BRISC 1 nM): selective inhibition
BRISC, normalised activity (Ext. 1a) ([7]; log [compound (μM)] 0.1938, listed as H20): 0.7394 and 0.8570
BRISC, normalised activity (Ext. 1a) ([7]; log [compound (μM)] 0.4949, listed as H20): 0.6725 and 0.7111
BRISC, normalised activity (Ext. 1a) ([7]; log [compound (μM)] 0.7959, listed as H20): 0.4328 and 0.4373
BRISC, normalised activity (Ext. 1a) ([7]; log [compound (μM)] 1.0969, listed as H20): 0.3601 and 0.3685
BRISC, normalised activity (Ext. 1a) ([7]; log [compound (μM)] 1.3979, listed as H20): 0.2929 and 0.2927
BRISC, normalised activity (Ext. 1a) ([7]; log [compound (μM)] 1.6990, listed as H20): 0.2472 and 0.2252
BRISC, normalised activity (Ext. 1a) ([7]; log [compound (μM)] 2.0000, listed as H20): 0.2296 and 0.2103
BRISC, normalised activity (Ext. 1a) ([7]; log [compound (μM)] 2.3010, listed as H20): 0.2316 and 0.1815
BRISC, normalised activity (Ext. 1a) ([7]; log [compound (μM)] -0.1072, listed as H20): 0.9797 and 1.0152
BRISC, normalised activity (Ext. 1a) ([7]; log [compound (μM)] -0.4082, listed as H20): 1.0306 and 1.0024
BRISC, normalised activity (Ext. 1a) ([7]; log [compound (μM)] -0.7093, listed as H20): 1.0136 and 1.0571
BRISC, normalised activity (Ext. 1a) ([7]; log [compound (μM)] -1.7100, normalisation point): 1.0000
normalised V0, Mean ([7]; log[compound (μM)] 0.1931): 0.7989
normalised V0, Mean ([7]; log[compound (μM)] 0.4942): 0.6361
normalised V0, Mean ([7]; log[compound (μM)] 0.7959): 0.4437
normalised V0, Mean ([7]; log[compound (μM)] 1.0969): 0.3773
normalised V0, Mean ([7]; log[compound (μM)] 1.3979): 0.3064
normalised V0, Mean ([7]; log[compound (μM)] 1.6990): 0.2332
normalised V0, Mean ([7]; log[compound (μM)] 2.0000): 0.2301
normalised V0, Mean ([7]; log[compound (μM)] 2.3010): 0.1610
normalised V0, Mean ([7]; log[compound (μM)] -0.1079): 0.9141
normalised V0, Mean ([7]; log[compound (μM)] -0.4089): 0.9318
normalised V0, Mean ([7]; log[compound (μM)] -0.7212): 0.9518
normalised V0, Mean ([7]; log[compound (μM)] -1.7212, normalisation point): 1.0000
